Experimental data taken from paper PMC6339874, “Anthranilic Acid Inhibitors of Undecaprenyl Pyrophosphate Synthase (UppS), an Essential Enzyme for Bacterial Cell Wall Biosynthesis” (Frontiers in Microbiology, 2019).
Converted amounts (≈) assume the structure as drawn.

Tests used:
S. aureus = assay: microbe, parasite or virus in culture; parameters: antibacterial MIC determination on wild-type strains; settings: Staphylococcus aureus, read-out: MIC S. aureus
E. coli = assay: microbe, parasite or virus in culture; parameters: antibacterial MIC determination on wild-type strains; settings: Escherichia coli, read-out: MIC E. coli
Procedure: E. coli AcrAB-TolC is a tripartite multidrug efflux pump system that expels compounds form the cell and this represents one of the possible mechanisms of bacterial defence against xenobiotics ([Kim et al., 2015]). […] On the other hand, compound 2 inhibited bacterial growth in both E. coli BW25113 ΔtolC strains with or without permeable membrane (MIC = 0.5 μg/mL). The antibacterial activity in the efflux pump-deficient E. coli BW25113 ΔtolC strain is independent from the presence of polymyxine B. Therefore, it can be postulated on the basis of the evaluation of compound 2, that transport across E. coli cell membrane is possible. This compound therefore represents an interesting starting point for further development, for example computational searches of similar compounds and analog synthesis.

[1] = target: T1, undecaprenyl pyrophosphate synthase (UppS) (Escherichia coli, UniProt P60472); assay: biochemical; parameters: radiolabeled [14C]-IPP UppS assay, TLC quantification of [14C]-UPP; residual activity or IC50; settings: read-out: % of control remaining
T1 construct: gene ispU; N-terminal His6-tagged UppSEc
T1 sequence (P60472 1-253): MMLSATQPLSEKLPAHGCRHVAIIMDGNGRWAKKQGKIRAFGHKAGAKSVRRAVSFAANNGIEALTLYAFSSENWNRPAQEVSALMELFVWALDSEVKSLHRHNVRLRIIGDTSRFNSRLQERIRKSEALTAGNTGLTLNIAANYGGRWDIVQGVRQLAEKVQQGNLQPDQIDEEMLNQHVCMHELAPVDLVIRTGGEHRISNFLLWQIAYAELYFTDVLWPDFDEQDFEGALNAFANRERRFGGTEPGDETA
Procedure: The UppS enzymatic activity was determined by using a kinetics-based assay utilizing a radiolabeled substrate. The assay revolves on the measuring of UPP formation in the reaction mixture in a final volume of 40 μL. Stock solutions of all compounds (2 mM) were prepared in DMSO and the final concentration of DMSO in the assay was 5% (v/v). The enzyme was diluted in buffer A to appropriate concentration so that the consumption of the substrate in the assay is no higher than 30%. The reaction mixture consisted of 20 μL of 100 mM HEPES, pH 7.5, 50 mM KCl, 0.5 mM MgCl2, 1.5 μM FPP, 12 μM [^14C]-IPP ([^14C]-IPP; 289 Bq), 2 μL DMSO with or without the inhibitor and 18 μL of optimal enzyme solution. […] Reaction mixture was lyophilized and resuspended in 10 μL of purified water. The radiolabeled substrate, [^14C]-IPP, and the product, [^14C]UPP, were separated on a Silica gel 60 TLC plate using 1-propranol / ammonium hydroxide / water in ratio of 6/3/1 (v/v/v) as a mobile phase (Rf([^14C]–IPP) = 0.21, Rf[^14C]UPP = 0.56), and quantified with a radioactivity scanner (Rita Star, Raytest Isotopenmessgeräte GmbH, Straubenhardt, Germany). Residual activities (RAs) were calculated with respect to a control reaction without the tested compounds and with 5% DMSO. All the experiments were run in duplicate with standard deviations within ± 10%. The IC50 values represented the concentrations for which the RA was 50% and were determined by measuring the RAs at seven different compound concentrations. The 34 purchased compounds were tested for their inhibitory potencies against E. coli UppS using a radioactivity-based assay. In these test conditions, the [^14C]-UPP formation is observed thanks to a radiolabeled substrate ([^14C]-IPP) and quantified with a radioactivity scanner. The results are presented as RAs of UppS in the presence of 100 μM of each compound (Supplementary Table S1). […] Sodium risedronate was used as a positive control to enable the comparison of the purchased compounds to a known inhibitor and to confirm the results of the UppS inhibition assay. […] All three inhibitors are anthranilic acid derivatives with a larger hydrophobic moiety attached to the amide group via different linkers, 2-cyanoacryloyl for compounds 1 and 2 and 2-thioacetyl for compound 3.

[2] = target: T2, undecaprenyl pyrophosphate synthase (UppS) (Escherichia coli, UniProt P60472); assay: radiolabeled […]-IPP assay, TLC quantification of […]-UPP, IC50 from seven concentrations; format: biochemical
T2 construct: gene ispU; N-terminal His6-tagged UppSEc

| SMILES | MIC (S. aureus) [µg/mL] | MIC (E. coli) [µg/mL] | remaining activity at 100 µM [1] [%] | IC50 [2] [µM] |
| --- | --- | --- | --- | --- |
| COc1ccc(C(=O)Nc2ccc(N3CCN(c4ccccc4F)CC3)cc2C(=O)O)cc1 [S21] | > 128 | > 128 | 74 |  |
| O=C(Nc1ccccc1C(=O)O)c1cccc(NC(=O)C(c2ccccc2)c2ccccc2)c1 [S14] | 128 (≈ 284 µM) | > 128 | 101 |  |
| O=C(CN1CCCC1C(=O)O)NCc1ccc(COc2ccccc2)cc1 (stereo not drawn) [S15] | > 128 | > 128 | 124 |  |
| CCCn1cc(NC(=O)CNS(=O)(=O)c2cccc3c(N(C)C)cccc23)c(C(=O)O)c1 [S7] | > 128 | > 128 | 85 |  |
| Cc1ccc(Nc2nccc(Nc3ccc(O)c(C(=O)O)c3)n2)c(C)c1 [S9] | > 128 | > 128 | 72 |  |
| CC(=O)c1ccc(NC(=O)C(Sc2ccc(NC(=O)c3ccccc3C(=O)O)cc2)c2ccccc2)cc1 (stereo not drawn) [S4] | > 128 | > 128 | 101 |  |
| Cc1ccc(N2CCN(C(=O)c3ccccc3NC(=O)C3CC=CCC3C(=O)O)CC2)cc1 (stereo not drawn) [S16] | > 128 | > 128 | 104 |  |
| O=C(O)c1ccccc1C(=O)Nc1ccc(C(=O)N(c2ccccc2)c2ccc3ccccc3c2)cc1 [S2] | > 128 | > 128 | 58 |  |
| O=C(Nc1ccc(COCc2ccccc2)cc1)c1ccnc(C(=O)O)c1 [S22] | > 128 | > 128 | 93 |  |
| N#C/C(=C\c1cn(Cc2cccc3ccccc23)c2ccccc12)C(=O)Nc1ccccc1C(=O)O [compound 1] | > 128 | > 128 |  | 45 |
| O=C(Cn1cc(-c2ccc(Cl)cc2)ncc1=O)NC(C(=O)O)c1ccccc1 (stereo not drawn) [S29] | > 128 | > 128 | 96 |  |
| COC(=O)C(NC(=O)c1ccccc1C(=O)O)c1ccc(OCc2ccccc2)c(OC)c1 (stereo not drawn) [S33] | > 128 | > 128 | 65 |  |
| Cc1ccc(OCCNC(=O)C2CC=CCC2C(=O)O)cc1 (stereo not drawn) [S23] | > 128 | > 128 | 117 |  |
| CCCc1ccc(S(=O)(=O)Nc2ccc(N3CCN(C4CCCCC4)CC3)cc2C(=O)O)cc1 [S28] | > 128 | > 128 | 113 |  |
| CCCCCCCCCCCCN(CP(=O)(O)O)CP(=O)(O)O [S34] | 128 (≈ 343 µM) | > 128 | 147 |  |
| O=C(O)C1CCCCC1C(=O)Nc1ccc(N2CCN(c3cccc(Cl)c3Cl)CC2)cc1 (stereo not drawn) [S3] | > 128 | > 128 | 96 |  |
| O=C(Cc1ccccc1C(=O)O)Nc1ccn(Cc2ccccc2Cl)n1 [S5] | > 128 | > 128 | 115 |  |

| SMILES | MIC (S. aureus) [µg/mL] | MIC (E. coli) [µg/mL] | remaining activity at 100 µM [1] [%] | IC50 [2] [µM] |
| --- | --- | --- | --- | --- |
| O=C(O)CCC(NC(=O)C(=Cc1cn(-c2ccccc2)nc1-c1cccnc1)NC(=O)c1ccccc1)C(=O)O (stereo not drawn) [S8] | > 128 | > 128 | 92 |  |
| O=C(NCCc1ccccc1)c1ccc(NC(=O)c2nccnc2C(=O)O)cc1 [S30] | > 128 | > 128 | 122 |  |
| Cc1cccc(N2CCN(c3ccc(NC(=O)C(C)C)c(C(=O)O)c3)CC2)c1 [S31] | > 128 | > 128 | 125 |  |
| O=C(O)C1CCCCC1C(=O)Nc1ccc(N2CCN(Cc3ccccc3)CC2)cc1 (stereo not drawn) [S6] | > 128 | > 128 | 53 |  |
| O=C(O)C1CC=CCC1C(=O)Nc1ccccc1C(=O)N1CCN(c2ccc(F)cc2)CC1 (stereo not drawn) [S19] | > 128 | > 128 | 99 |  |
| O=C(O)c1ccccc1C(=O)NCCC(c1ccc(F)cc1)c1ccco1 (stereo not drawn) [S27] | > 128 | > 128 | 99 |  |
| Cc1cccc(C(=O)O)c1NC(=O)COc1ccc(Cl)cc1 [S32] | > 128 | > 128 | 122 |  |
| O=C(COc1ccccc1)Nc1ccc(N2CCN(c3ccc(Cl)cc3)CC2)cc1C(=O)O [S25] | 64 (≈ 137 µM) | > 128 | 121 |  |
| Cc1ccc(-n2c(SCC(=O)Nc3ccccc3C(=O)O)nnc2-c2cc3ccccc3o2)cc1 [S18] | > 128 | > 128 | 122 |  |
| N#C/C(=C\c1cccc(OCc2ccc(F)cc2)c1)C(=O)Nc1ccccc1C(=O)O [compound 2] | > 128 | > 128 |  | 25 |
| CCOc1ccc(N(CC(=O)Nc2ccccc2C(=O)O)S(=O)(=O)c2ccc(Cl)cc2)cc1 [S26] | 128 (≈ 262 µM) | > 128 | 102 |  |
| Cc1cc(C)n(CCCNc2ccc(C(=O)c3ccccc3C(=O)O)cc2[N+](=O)[O-])n1 [S13] | > 128 | > 128 | 92 |  |
| O=C(O)c1cccc(C(=O)NCCc2nc3ccccc3n2C(F)F)c1 [S20] | > 128 | > 128 | 168 |  |
| Cc1sc(NC(=O)c2ccccc2C(=O)O)nc1-c1ccc(-c2ccccc2)cc1 [S12] | > 128 | > 128 | 120 |  |
| O=C(O)c1ccccc1C(=O)Nc1ccc(C(=O)N(c2ccccc2)c2cccc3ccccc23)cc1 [S11] | > 128 | > 128 | 60 |  |
| O=C(CSc1nnc(-c2cc3ccccc3o2)n1-c1ccccc1)Nc1ccccc1C(=O)O [compound 3] | > 128 | > 128 |  | 24 |
